Source: a melting point compilation (Tetko et al.)

Row | SMILES | melting point
1 | O=C1CN(C(=O)c2ccc(Cl)nc2)CCN1 | 163 to 165 °C
2 | N#Cc1ccc2ncccc2c1 | 135 to 137 °C
3 | Sc1nnc2sc3ccccc3n12 | 252 to 254 °C
4 | CNC(=O)CNc1ccccc1C | 112 to 114 °C
5 | COC(=O)c1ccc(C(=O)OC)c(NC(=O)C(C)Cl)c1 (centres undefined) | 128 to 130 °C
6 | Cc1cccc(N)c1C(N)=O | 141 to 143 °C
7 | Cc1ccc(-c2noc(CCC(=O)O)n2)cc1 | 143 to 145 °C
8 | CCS(=O)(=O)c1ccc2oc(N)nc2c1 | 209 to 211 °C
9 | c1cc(-c2nc3cc4c(cc3[nH]2)OCCO4)cs1 | 279 to 281 °C
10 | Cc1cc(=O)n2c([nH]c3ccccc32)c1C#N | 270 to 272 °C
11 | O=C(CCl)NNC(=O)c1cccc(Cl)c1 | 155 to 157 °C
12 | O=C(CBr)c1ccc(Cl)s1 | 113 to 115 °C
13 | Cc1noc(-c2ccc(N)c(C)c2)n1 | 161 to 163 °C
14 | Cc1cc(OCCO)ccc1N | 62 to 64 °C
15 | CCOC(=O)c1ccc(-n2ccnc2)c(N)c1 | 89 to 93 °C
16 | O=S(=O)(NC1CC1)C1CCN(Cc2ccccc2)C1 (centres undefined) | 94 to 96 °C
17 | CC(C)(C)OC(=O)Nc1ccc(O)cc1 | 131 to 133 °C
18 | NNC(=O)C1Cc2ccccc2O1 (centres undefined) | 150 to 152 °C
19 | Nc1nnc(CC2CCCC2)o1 | 174 to 176 °C
20 | CN1C(=O)C(C(N)=O)=C(N)C12CCCC2 | 255 to 257 °C
21 | Cc1nc2[nH]cnc2cc1Br | 197 to 199 °C
22 | CC(C)(C)OC(=O)NCC1CCCCS1 (centres undefined) | 70 to 72 °C
23 | O=C(O)c1cc(-c2c(F)cccc2F)no1 | 181 to 183 °C
24 | Cc1c(C(=O)O)c(=O)oc2ccccc12 | 163 to 165 °C
25 | O=C(O)c1cccc2[nH]c(=O)oc12 | 329 to 331 °C
26 | CNS(=O)(=O)c1ccc(Sc2ccccc2C(=O)O)cc1 | 199 to 201 °C

Row | SMILES | melting point
27 | CNC(C(N)=O)c1cccc(Br)c1 (centres undefined) | 111 to 113 °C
28 | CC(=O)c1c(C)[nH]c2ccccc12 | 195 to 197 °C
29 | Nc1ccc(CNC(=O)c2ccc(Br)cc2)cc1 | 173 to 175 °C
30 | CNC1=NS(=O)(=O)c2ccccc21 | 269 to 271 °C
31 | CC(=O)c1ccc(NS(C)(=O)=O)cc1 | 155 to 157 °C
32 | CNC(=O)NC(=O)CCCCl | 122 to 124 °C
33 | CC(C)(C)OC(=O)NCc1cccc(O)c1 | 79 to 81 °C
34 | Nc1ccc(CC(=O)N2CCCC2)cc1 | 107 to 109 °C
35 | NC(=O)Nc1ccc(Br)cc1C(=O)O | 171 to 173 °C
36 | ClCc1csc(COc2ccccc2)n1 | 49 to 51 °C
37 | O=C(O)c1csc(-c2ccc(F)cc2)n1 | 196 to 198 °C
38 | COc1cc(CC#N)cc(Br)c1OC(F)F | 200 to 203 °C
39 | Cc1cc(C)c2c(Cl)c(C(=O)O)sc2c1 | 286 to 288 °C
40 | CC(Sc1ncn[nH]1)C(=O)O (centres undefined) | 173 to 175 °C
41 | O=C(O)c1ccc(F)c(S(=O)(=O)Cc2ncon2)c1 | 169 to 171 °C
42 | COC(=O)/C=C1\SCC(=O)N1CCCCl | 95 to 97 °C
43 | O=C(O)c1cccc(S(=O)(=O)NC2CCOC2=O)c1 (centres undefined) | 220 to 222 °C
44 | CC(=O)c1sc(C(C)(C)C)nc1C | 66 to 68 °C
45 | CC1CCC(C)N1c1cn[nH]c1 (centres undefined) | 65 to 67 °C
46 | Nc1cccc(-n2ccnn2)c1 | 118 to 120 °C
47 | O=S(=O)(F)Cc1ccccc1Cl | 69 to 71 °C
48 | CN(C)CCN=C=S | 35 to 37 °C
49 | O=C(O)c1cccc(S(=O)(=O)NCc2cccs2)c1 | 223 to 225 °C
50 | O=C(O)c1cc([N+](=O)[O-])c2nsnc2c1 | 199 to 201 °C
51 | Oc1ccc(-c2nnc[nH]2)cc1 | 244 to 246 °C
52 | O=C(CCl)Nc1ccccc1OC(F)F | 92 to 94 °C

Row | SMILES | melting point
53 | COC(=O)c1cc([N+](=O)[O-])c[nH]c1=O | 254 to 256 °C
54 | CC(=O)c1c[nH]c(C(=O)C(Cl)(Cl)Cl)c1 | 190 to 192 °C
55 | Clc1ccc(N2CCCC2)nn1 | 115 to 116 °C
56 | CCc1c(C(=O)O)cnn1Cc1ccccc1 | 124 to 126 °C
57 | CCCCCCCC(=O)NCCCC(=O)O | 69 to 71 °C
58 | Cc1cn2c(CO)c(C)nc2s1 | 149 to 151 °C
59 | CCOc1ccc(C(=O)O)cc1[N+](=O)[O-] | 201 to 203 °C
60 | O=C(O)c1ccc(Nc2ccc(F)c(F)c2)c([N+](=O)[O-])c1 | 237 to 239 °C
61 | COc1ccccc1NC(=O)CC(N)=S | 146 to 148 °C
62 | COc1ccc(S(N)(=O)=O)c(C)c1C | 202 to 204 °C
63 | CCc1ccc(S(=O)(=O)Cl)cc1C(=O)O | 133 to 135 °C
64 | CC1(c2ccc(O)cc2)NC(=O)NC1=O (centres undefined) | 240 to 242 °C
65 | CC(CN)N1CCN(c2ccccc2)CC1 (centres undefined) | 91 to 93 °C
66 | O=C(O)CCCc1ccc2[nH]c(=O)[nH]c2c1 | 244 to 246 °C
67 | O=C(O)CCC(=O)c1cccc(F)c1 | 94 to 96 °C
68 | O=C(O)c1ccc2c(=O)[nH]c(CCl)nc2c1 | 344 to 346 °C
69 | CC(NC(=O)c1ccc(Br)cc1)C(=O)O (centres undefined) | 138 to 140 °C
70 | CCc1cc(=O)[nH]c(-c2ccccc2)n1 | 162 to 164 °C
71 | N#CCCC(=O)c1ccco1 | 80 to 84 °C
72 | CC1NCCNC1=O (centres undefined) | 65 to 67 °C
73 | Nc1cccc(C(=O)Nc2cccc(F)c2)c1 | 123 to 125 °C
74 | CC(C)(C)OC(=O)Nc1cccc(O)c1 | 135 to 137 °C
75 | CCNc1c(N)n(CC)c(=O)[nH]c1=O | 210 to 212 °C
76 | CCC(C)n1nc(N)cc1C (centres undefined) | 54 to 56 °C
77 | N#Cc1ccc(F)c(Cl)c1Cl | 65 to 67 °C
78 | CC(C)CC1(C)CC(=O)NC1=O (centres undefined) | 81 to 83 °C

Row | SMILES | melting point
79 | NS(=O)(=O)c1cccnc1 | 109 to 111 °C
80 | O=C(O)c1ccccc1Cc1nc2ccccc2c(=O)[nH]1 | 283 to 285 °C
81 | Nc1ccnc(N2CCCC2)n1 | 218 to 220 °C
82 | O=C(O)c1n[nH]cc1[N+](=O)[O-] | 223 to 225 °C
83 | NC(=O)c1cnn(-c2ncccn2)c1N | 256 to 258 °C
84 | CCOC(=O)c1nc2ccc(Br)cc2c(=O)[nH]1 | 261 to 263 °C
85 | O=C(O)c1ccc(NC(=O)c2ccccc2)cc1 | 297 to 299 °C
86 | NCC(O)c1ccc(Cl)c(F)c1 (centres undefined) | 54 to 56 °C
87 | Cc1nn(-c2ccc(F)cc2)c2sc(C(=O)O)cc12 | 205 to 210 °C
88 | Fc1ccc(-c2nnc(S)o2)cc1 | 204 to 206 °C
89 | CC(C(=O)c1ccccc1)N1C(=O)CCC1=O (centres undefined) | 107 to 109 °C
90 | COC(=O)C1CNNC(=O)C1 (centres undefined) | 119 to 121 °C
91 | Cc1ccc(C(=O)N2CCOCC2)cc1N | 153 to 155 °C
92 | Cc1nc(C)c(S(N)(=O)=O)s1 | 142 to 144 °C
93 | Nc1ccc2[nH]c(-c3ccccn3)nc2c1 | 189 to 191 °C
94 | N=c1nc(S)ss1 | 192 to 196 °C
95 | CC(C)n1ncc(C(=O)O)c1C(F)(F)F | 125 to 127 °C
96 | O=C(O)c1ccc(N2CCCS2(=O)=O)cc1Cl | 226 to 228 °C
97 | O=C(O)C=Cc1cc(Cl)ccc1OCc1ccc(Cl)cc1 | 162 to 164 °C
98 | ON=C1CCCOc2ccc(Br)cc21 | 107 to 109 °C
99 | COc1cc2[nH]nnc2cc1C(=O)O | 219 to 221 °C
100 | CCCOc1cc2c(cc1C=O)OC(C)C2 (centres undefined) | 45 to 47 °C
101 | CC1(O)CCc2ccccc2C1 (centres undefined) | 39 to 41 °C
102 | CNC(=O)c1c(Cl)ccc(S(=O)(=O)NC)c1Cl | 231 to 233 °C
103 | CCNC(=O)OCC(F)(F)F | 27 to 29 °C
104 | CC(C)(C)OC(=O)Nc1ccc(C(F)(F)F)cc1C(=O)O | 190 to 192 °C
